Tests used:
[1] = system: Mycoplasma pulmonis (ATCC 19612); assay: Rats infected intranasally with Mycoplasma pulmonis: lung pathology and breeding; type: in vivo, Mycoplasma pulmonis (host: rat); conditions: 1 PPB in drinking water 58 days; three M. pulmonis infected female rats
From the text: Attempts were made to test the effect of infecting rats with Mycoplasma pulmonis (ATCC 19612) so that they could transmit the disease to their cage mates and, also allowed them to breed. This was also done to test if the mothers would pass the infection on to their litters. These rats were purchased from a laboratory in Indianapolis, Indiana and they were divided into 6 groups with male animals in each group. In the 5 experimental groups, a total of 15 female rats out of 30, and in the control group 4 female rats out of 8 were infected intranasally with Mycoplasma pulmonis (ATCC 19612). There were two male rats per experimental group and 3 for the controls totaling 13 male rats, and none of these were infected with M. pulmonis.
The experimental groups (8 rats each) and control group were treated as follows:
All rats were fed ad libitum rat chow, and their cages were cleaned 5-6 times weekly. For the 5 experimental groups, the 2,4 DMP was dissolved in distilled water used for their drinking fluid while the control only received distilled water. There were times when the rats spilled excessive amounts of their drinking water and this caused a certain amount of the phenol to be evaporated from these cages, particularly those groups receiving the higher concentrations of the phenol. […]

[2] = system: chronic respiratory disease (CRD); assay: Treatment of chronic respiratory disease in inbred GM rats; type: in vivo, rat (GM); on Dead animals: tested at 0.001 ppm; on Ill animals: tested at 0.001 ppm; on Well animals: tested at 0.001 ppm; on new born rats, all appeared healthy: tested at 0.001 ppm; on total number of rats in colony: tested at 0.001 ppm
Description: One-half of a colony of spontaneously hypertensive (SH) rats was treated with 2,4-dimethylphenol in their drinking water at a concentration of one part per billion. The other half of this colony was given only tap water, and both groups observed for 76 days. The second experiment was with a highly inbred strain (GM) of rats that were about to expire, because of chronic respiratory infection. […] Both groups, the SH rats and the GM rats, were not breeding because of their infections and were in seriously poor health.
The second experiment was run concurrently with Example 36, but this time the animals were the highly inbred GM strain. A number of these animals were ill with chronic respiratory disease and unable to breed. These rats were randomly divided into two groups of 26 each. The experimental group received 1 PPB of the 2,4-dimethylphenol in their drinking water and the control group received only tap water.

San Carlos virus = assay: Inhibition of cytopathic activity (CPE) of San Carlos virus in HEL tissue culture; type: cell-based, San Carlos virus (adenovirus); conditions: for CPE with 100 TCID50 doses of San Carlos virus: HEL cells
Description: The anti-viral activity of 2,4-dimethylphenol was studied in the following manner. Tissue cultures derived from human embryonic lung (HEL) were grown and maintained as monolayers in 32 ounce prescription bottles using growth medium consisting of 85% synthetic mixture No. 199 plus 15% unfiltered fetal bovine serum (FBS) adjusted to pH 7.4. Tube cultures of HEL cells were prepared in similar fashion and used in assays for anti-viral activity. During chemotherapy tests, the maintenance medium consisted of synthetic mixture No. 199 with 7.5% FBS. The virus spectrum in tissue culture consisted of two DNA viruses, a San Carlos virus isolated by Davis [see Science 133, 2059, 1961] and later identified as an adenovirus, and the HF strain of herpes simplex virus. In addition, a RNA virus represented by measles was included in the examples.
In performing the initial assays, the tissue cultures were treated prophylactically and the virus was treated in vitro with decreasing 2,4-dimethylphenol concentrations ranging from […] (2 × 10^-6) to 2 attograms (ag) (2 × 10^-18) per ml. The procedure consisted of pretreating tube cultures of HEL cells for two to three days with growth medium containing varying concentrations of 2,4-dimethylphenol. After the prophylactic treatment, the test fluids were removed and replaced with fresh maintenance medium. At this time, 200 TCID50 doses of virus were mixed in vitro with the same decreasing concentrations of the distillate used to pretreat the cells, then the mixture was inoculated into replicate culture of HEL cells so that the final incolum consisted of 100 TCID50 doses of virus in tubes with 2,4-dimethylphenol at the same level used to prophylactically treat the cells.
The same number of infected control tubes were handled in the same way except that 2,4-dimethylphenol was omitted from all media. Culture tubes were rotated at 37° C. and examined daily for a period of 7 days for cytopathic activity (CPE). […] By the same token, the CPE of herpes virus was inhibited by both the 10^-12 and 10^-15 level, possibly indicating two active components. […]

[3] = day 58, 1 PPB in drinking water, GM rats
[4] = day 66, 1 PPB in drinking water, GM rats
[5] = day 73, 1 PPB in drinking water, GM rats
[6] = day 80, 1 PPB in drinking water, GM rats
[7] = over 2.5 years, 1 PPB in drinking fluid, combined GM groups

For Cc1ccc(O)c(C)c1 [2,4-dimethylphenol], the “lung infection compared with the other four groups and the controls” value [1] was “for all practical purposes, clear of infection”, the “new born rats, all appeared healthy” value ([2]; by day 150, 1 PPB in drinking water, GM rats) was 31 and the “breeding of experimental group” value ([2]; by day 150, 1 PPB, GM rats, control group did not start breeding) was “began to breed”. The Ill animals [2, 3] was 3, the Well animals [2, 3] was 23 and the “Total number of rats” value ([2]; day 58, 1 PPB in drinking water, GM rats, 26 at start) was 26. For the same compound, the Ill animals [2, 4] was 3, the Well animals [2, 4] was 23 and the “Total number of rats” value ([2]; day 66, 1 PPB in drinking water, GM rats, 26 at start) was 26. For the same compound, the Ill animals [2, 5] was 2, the Well animals [2, 5] was 24 and the “Total number of rats” value ([2]; day 73, 1 PPB in drinking water, GM rats, 26 at start) was 26. It also gave a Dead animals [2, 6] of 1, an Ill animals [2, 6] of 0 and a Well animals [2, 6] of 25. For the same compound, the “Total number of rats” value ([2]; day 80, 1 PPB in drinking water, GM rats, 26 at start) was 25, the Well animals ([2]; day 150, 1 PPB in drinking water, GM rats) was 53 and the “Total number of rats” value ([2]; day 150, 1 PPB in drinking water, GM rats, includes 31 new born) was 56. The Ill animals ([2]; day 150, 1 PPB in drinking water, GM rats, only a trace of secretion) was 3, the “symptoms of the three rats listed as ill” value ([2]; day 150, 1 PPB, GM rats) was “only a trace of secretion” and the state of colony [2, 7] was “the colony has continued to thrive”. The “total number of rats in colony” value [2, 7] was “about 400”, the “CPE with 100 TCID50 doses of San Carlos virus” value (from here on “CPE with 100 TCID50 doses”) (San Carlos virus; 2,4-dimethylphenol 10^-4 grams 2X) was 4+ (100% of cells infected with selected virus) and the “CPE with 100 TCID50 doses” value (San Carlos virus; 10^-5 grams 2X) was 2+ (50% of cells infected with selected virus). For the same compound, the “CPE with 100 TCID50 doses” value (San Carlos virus; 10^-6 grams 2X) was 2+ (50% of cells infected with selected virus), the “CPE with 100 TCID50 doses” value (San Carlos virus; 10^-7 grams 2X) was 1+ (25% of cells infected with selected virus) and the “CPE with 100 TCID50 doses” value (San Carlos virus; 10^-8 grams 2X) was 1+ (25% of cells infected with selected virus). The “CPE with 100 TCID50 doses” value (San Carlos virus; 10^-9 grams 2X) was 1+ (25% of cells infected with selected virus), the “CPE with 100 TCID50 doses” value (San Carlos virus; 10^-10 grams 2X) was 1+ (25% of cells infected with selected virus) and the “CPE with 100 TCID50 doses” value (San Carlos virus; 10^-11 grams 2X) was 1+ (25% of cells infected with selected virus). For the same compound, the “CPE with 100 TCID50 doses” value (San Carlos virus; 10^-12 grams 2X) was 2+ (50% of cells infected with selected virus), the “CPE with 100 TCID50 doses” value (San Carlos virus; 10^-13 grams 2X) was 2+ (50% of cells infected with selected virus) and the “CPE with 100 TCID50 doses” value (San Carlos virus; 10^-14 grams 2X) was 3+ (75% of cells infected with selected virus). For the same compound, the “inhibition of CPE produced by San Carlos virus” value (San Carlos virus; picograms, 10^-10 to 10^-12 per ml of medium) was “slight but consistent inhibition”.
